These results are taken from US20250136558A1, “PYRAZINE COMPOUNDS AS IRREVERSIBLE INHIBITORS OF FLT3” (BIOMEA FUSION, INC., priority 2021, published 2025).

What all share (type): cell-based
One test has as its system MV-4-11. Description: Proliferation inhibition (CellTiter-Glo) in MV-4-11 cells. The following applies: Homo sapiens, MV4-11, 96 h, MV-4-11 AML cells, homozygous FLT3-ITD, IC50 (4 days). An excerpt: (§1) The Proliferation Inhibitory Effect was Investigated in Human AML Cell Lines MOLM-13 (AddexBio: C0003003) [REF: Pubmed: 9305600] and MV-4-11 (ATCC: CRL-9591) [REF PMID: 3496132], and CML cell line […] (ATCC: CRL-3343) [REF PMID: 163658]. Molm-13 is heterozygous for FLT3-ITD mutation, while MV4-11 is homozygous for FLT3-ITD [PMID: 12529668]. […] Cells were maintained in RPMI-1640 medium (ThermoFisher catalog no. 61870036) supplemented with 10% of Heat Inactivated FBS (ThermoFisher catalog no.A31605) and 1% Pen-Strep (Thermofisher catalog no. 10378016) and cultured at 37° C. in a humidified incubator with 5% CO2. Cell lines were […], and the cells were maintained in a range 70%-80% confluency.
(§2) ATP is present in all metabolically active cells and is considered as a marker for cell viability and proliferation. Metabolic cell activity was determined using the CellTiter-Glo kit (Promega catalog no. G7572), an ATP monitoring system based on the production of luminescence by the reaction of ATP with added UltraGlo® recombinant luciferase (Kawano et al., 2016, PLOS One, 8; 11(7):e0158888), according to the supplier's experimental recommendations. The assay was based on a 96 well plate format.
(§3) Test compounds were dissolved at 10 mM in DMSO (Sigma catalog no. D8418; purity 299.9%) and stored at −20° C. Eight concentrations of test compound were assessed in duplicate in an individual test occasion in parallel in the selected cell lines. Gilteratinib and FF-10101 were used as reference compounds and tested in duplicate at eight concentrations. 100% of proliferation is represented by the untreated cells (0.2% DMSO).
(§4) On the day of the experiment (TO), cells were quantified with the cell viability analyser NucleoCounter (Chemometec NC-200) and diluted with fresh medium to obtain the cell density of about 10,000 cells per 200 μL medium. 200 μL of cell suspension were added into wells in the 96 well plate.
(§5) After 2 hours from seeding cells, compounds were added using a D300e compound dispenser (Life Sciences Tecan D300) at desired concentrations with shaking between each compound dispensed. Cell plates containing 200 μL/well suspension were incubated at 37° C. in a humidified incubator with […].
(§6) […] Contents were mixed for 5 min on an orbital shaker to induce cell lysis, and then incubated at room temperature for an additional 10 min in the dark to stabilize the luminescent signal. Luminescence was read by using a GloMax GM300 plate reader (Promega) using the luminescence for 96 well plate standard protocol.
(§7) Results were analysed by GraphPad (Prism) and IC50 values were calculated by non-linear regression using four parameter-logistic equation.

Another test has as its system K-562. Kind of test: Proliferation inhibition (CellTiter-Glo) in K-562 cells. The following applies: Homo sapiens, K562, 96 h, K-562 CML cells, no FLT3 mutations, IC50 (4 days).
From the text: as §1, §2, §3, §4, §5, §6, §7
Background: ATP-based viability assays read luminescence as a measure of living cells.

The next test deals with MOLM-13. Description: Proliferation inhibition (CellTiter-Glo) in MOLM-13 cells. Conditions: Homo sapiens, 96 h, MOLM-13 AML cells, heterozygous FLT3-ITD, IC50 (4 days).
From the text: as §1, §2, §3, §4, §5, §6, §7

As usually defined, the IC50 is the concentration at which inhibition is half-maximal.

For `CC#CC(=O)NCCNc1cc(Nc2nc(NC3CCOCC3)c(CC)nc2C(N)=O)ccn1` [Compound 22, 3-((2-((2-(But-2-ynamido)ethyl)amino)pyridin-4-yl)amino)-6-ethyl-5-((tetrahydro-2H-pyran-4-yl)amino)pyrazine-2-carboxamide], the IC50 in the test with MV-4-11 is 10 to 100 nM; with K-562, above 500 nM; with MOLM-13 it was 10 to 100 nM.
With `CC#CC(=O)N(C)[C@@H](C)C(=O)NCCCOc1cccc(Nc2nc(NC3CCOCC3)c(CC)nc2C(N)=O)c1` [Compound 114, 3-[3-[3-[[(2S)-2-[but-2-ynoyl(methyl)amino]propanoyl]amino]propoxy]anilino]-6-ethyl-5-(tetrahydropyran-4-ylamino)pyrazine-2-carboxamide], the results for the half-maximal inhibitory concentration (IC50) with MV-4-11, in the test with K-562 and in the test on MOLM-13 were 1 to 10 nM, above 500 nM and 10 to 100 nM, respectively.
With `C=CC(=O)N(C)[C@@H](C)C(=O)NCC#Cc1cc(Nc2nc(NC3CCOCC3)c(CC)nc2C(N)=O)ccc1OC` [Compound 113, 6-ethyl-3-[4-methoxy-3-[3-[[(2S)-2-[methyl(prop-2-enoyl)amino]propanoyl]amino]prop-1-ynyl]anilino]-5-(tetrahydropyran-4-ylamino)pyrazine-2-carboxamide], the figures for the IC50 with MV-4-11, in the test with K-562 and in the test with MOLM-13 were below 1 nM, above 500 nM and 1 to 10 nM, respectively.
With `CCc1nc(C(=O)NC)c(Nc2cccc(CCNC(=O)C(C)N(C)C(=O)/C=C/CN(C)C)c2)nc1NC1CCOCC1` (stereo not drawn) [Compound 152, (E)-3-((3-(2-(2-(4-(dimethylamino)-N-methylbut-2-enamido)propanamido)ethyl)phenyl)amino)-6-ethyl-N-methyl-5-((tetrahydro-2H-pyran-4-yl)amino)pyrazine-2-carboxamide], the IC50 with MV-4-11, in the test with K-562 and with MOLM-13 was above 500 nM in each case.
As to `C=CC(=O)N(C)[C@@H](C)C(=O)NCCNc1cc(Nc2nc(NC3CCOCC3)c(CC)nc2C(N)=O)ccn1` [Compound 40, 6-ethyl-3-[[2-[2-[[(2S)-2-[methyl(prop-2-enoyl)amino]propanoyl]amino]ethylamino]-4-pyridyl]amino]-5-(tetrahydropyran-4-ylamino)pyrazine-2-carboxamide], the IC50 was 1 to 10 nM in the test on MV-4-11, above 500 nM in the test on K-562 and 1 to 10 nM in the test on MOLM-13.
For `C=CS(=O)(=O)NCCC#Cc1cccc(Nc2nc(NC3CCOCC3)c(CC)nc2C(N)=O)c1` [Compound 12, 6-ethyl-5-((Tetrahydro-2H-pyran-4-yl)amino)-3-((3-(4-(vinylsulfonamido)but-1-yn-1-yl)phenyl)amino)pyrazine-2-carboxamide], the figures for the IC50 in the test on MV-4-11, in the test with K-562 and in the test with MOLM-13 were 100 to 500 nM, above 500 nM and above 500 nM, respectively.
In the test on K-562, `CCc1nc(C(N)=O)c(Nc2cccc(CCNC(=O)[C@H](C)N(C)C(=O)/C=C/CNC)c2)nc1N(C)C(C)C` [Compound 307, (S,E)-6-ethyl-5-(isopropyl(methyl)amino)-3-((3-(2-(2-(N-methyl-4-(methylamino)but-2-enamido)propanamido)ethyl)phenyl)amino)pyrazine-2-carboxamide] returned an IC50 above 500 nM.
For the compound `Cc1cc(C(N)=O)c(Nc2cncc(CCNC(=O)[C@H](C)N(C)C(=O)/C=C/CN(C)C)c2)nc1C1CC1` [Compound 323, (S,E)-6-cyclopropyl-2-((5-(2-(2-(4-(dimethylamino)-N-methylbut-2 enamido)propanamido)ethyl)pyridin-3-yl)amino)-5-methylnicotinamide], the IC50 with K-562 is above 500 nM.
`CCc1nc(C(N)=O)c(Nc2cncc(CCNC(=O)[C@H](C)N(C)C(=O)/C=C/CN(C)C)c2)nc1C1CC1` [Compound 306, (S,E)-5-cyclopropyl-3-((5-(2-(2-(4-(dimethylamino)-N-methylbut-2-enamido)propanamido)ethyl)pyridin-3-yl)amino)-6-ethylpyrazine-2-carboxamide] displayed an IC50 with K-562 above 500 nM.
